Test: xn = mol fraction of the nth substance listed
Conditions: 101 kPa, Liquid; for speed of sound: Sing-around technique in a fixed-path interferometer; for mass density: Vibrating tube method

CCCCCCOCCOCCO [2-(2-hexyloxyethoxy)ethanol] + CCCCN(CCCC)CCCC
Conditions | mass density, 288.15 K [kg/m3] | mass density, 293.15 K [kg/m3] | mass density, 298.15 K [kg/m3] | mass density, 303.15 K [kg/m3] | mass density, 308.15 K [kg/m3] | speed of sound, 288.15 K [m/s] | speed of sound, 293.15 K [m/s] | speed of sound, 298.15 K [m/s] | speed of sound, 303.15 K [m/s] | speed of sound, 308.15 K [m/s]
x1 = 0.1168 | 797.427 | 793.696 | 789.759 | 785.812 | 782.055 | 1294 | 1274.9 | 1256 | 1237.3 | 1219
x1 = 0.1659 | 804.49 | 800.716 | 796.756 | 792.8 | 788.975 | 1298.2 | 1279.2 | 1260.3 | 1241.7 | 1223.4
x1 = 0.2092 | 810.815 | 806.993 | 803.027 | 799.078 | 795.2 | 1302.1 | 1283.1 | 1264.3 | 1245.8 | 1227.5
x1 = 0.2589 | 818.158 | 814.291 | 810.334 | 806.371 | 802.458 | 1306.8 | 1287.9 | 1269.2 | 1250.8 | 1232.5
x1 = 0.3155 | 826.596 | 822.69 | 818.738 | 814.795 | 810.825 | 1312.6 | 1293.8 | 1275.2 | 1256.8 | 1238.6
x1 = 0.3564 | 832.755 | 828.829 | 824.867 | 820.924 | 816.944 | 1316.9 | 1298.2 | 1279.7 | 1261.4 | 1243.2
x1 = 0.383 | 836.791 | 832.842 | 828.881 | 824.93 | 820.957 | 1319.8 | 1301.2 | 1282.7 | 1264.5 | 1246.4
x1 = 0.4544 | 847.683 | 843.729 | 839.761 | 835.783 | 831.821 | 1328 | 1309.5 | 1291.2 | 1273.2 | 1255.2
x1 = 0.5108 | 856.418 | 852.463 | 848.467 | 844.479 | 840.528 | 1334.9 | 1316.5 | 1298.3 | 1280.4 | 1262.6
x1 = 0.5568 | 863.63 | 859.691 | 855.668 | 851.665 | 847.701 | 1340.7 | 1322.4 | 1304.3 | 1286.5 | 1268.8
x1 = 0.6107 | 872.206 | 868.299 | 864.217 | 860.198 | 856.228 | 1347.7 | 1329.6 | 1311.6 | 1294 | 1276.4
x1 = 0.6683 | 881.543 | 877.641 | 873.531 | 869.475 | 865.486 | 1355.6 | 1337.5 | 1319.7 | 1302.2 | 1284.8
x1 = 0.6924 | 885.505 | 881.587 | 877.468 | 873.41 | 869.396 | 1358.9 | 1340.9 | 1323.2 | 1305.8 | 1288.4
x1 = 0.7544 | 895.808 | 891.893 | 887.746 | 883.674 | 879.592 | 1367.8 | 1350 | 1332.3 | 1315.2 | 1297.8
x1 = 0.7963 | 902.873 | 898.935 | 894.791 | 890.73 | 886.574 | 1373.9 | 1356.2 | 1338.7 | 1321.6 | 1304.4
x1 = 0.858 | 913.335 | 909.366 | 905.245 | 901.206 | 896.983 | 1383.2 | 1365.7 | 1348.3 | 1331.5 | 1314.2
x1 = 0.9079 | 921.784 | 917.773 | 913.7 | 909.674 | 905.434 | 1390.9 | 1373.6 | 1356.4 | 1339.6 | 1322.3
x1 = 0.9553 | 929.676 | 925.674 | 921.63 | 917.622 | 913.46 | 1398.4 | 1381.3 | 1364.2 | 1347.6 | 1330.2

Source: the NIST ThermoML archive (doi:10.1021/je800026p)
